Source: patent publication EP3714904B1, “IMINODIACETIC ACID SUBSTITUTED CYCLODEXTRINS AS POTENTIATORS OF BETA-LACTAM ANTIBIOTICS” (NATIONAL CENTER FOR SCIENTIFIC RESEARCH "DEMOKRITOS" (NCSRD), priority 2019, dated 2020)
Where two headings read alike, the source gives them in different places.

How the values were obtained:
[1] = test system: Escherichia coli; assay: MIC of β-lactams alone or with 50 µM IDACYD against clinical isolates; assay type: cell-based; details: for MIC: Escherichia coli, alone
Procedure: (§1) Further the in-vitro inhibitory activity of IDACYDs was tested against highly resistant pathogens. Tables 3, 4 and 5 show the effect of IDACYDs using a collection of 36 highly resistant Gram negative strains (Table 2, Kirby-Bauer disc diffusion method) producing NDM, VIM and IMP type MBLs as well as 6 isolates expressing serine beta-lactamases (ESBLs, AmpCs). […] Clinical isolates co-expressing ESBLs and/or AmpC β-lactamases along with MBLs where re-sensitized to both imipenem and meropenem, as expected. Table 2: Collection of clinical isolates used for in-vitro evaluation

[2] = test system: Proteus mirabilis; assay: as above; assay type: cell-based; details: for MIC: Proteus mirabilis, alone
Procedure: as §1

[3] = test system: Serratia marcescens; assay: as above; assay type: cell-based; details: isolate EUG-815 (VIM, CMY)
Procedure: as §1

[4] = test system: Acinetobacter baumannii; assay: as above; assay type: cell-based; details: for MIC: Acinetobacter baumannii, alone
Procedure: as §1

[5] = test system: Providencia stuartii; assay: as above; assay type: cell-based; details: for MIC: Providencia stuartii, alone
Procedure: as §1

[6] = test system: Enterobacter gergoviae; assay: as above; assay type: cell-based; details: for MIC: Pluralibacter gergoviae, alone
Procedure: as §1

[7] = test system: L929 fibroblast cells
[8] = Plasma levels of metal ions, creatinine and urea in infected mice; assay type: in vivo, CD-1 mice; details: 30 mg/kg meropenem + 20 mg/kg β-IDACYD every 2 h for 24 h, 0 h, 6 h, 140 h
Procedure: Example 10. Examination of the cross-reactivity of β-IDACYD with vital metal ions in mouse plasma and of induction of immune responses in infected mice: In order to examine a potential cross-reactivity of the β-IDACYD with metal ions necessary for the maintenance of homeostasis, plasma was isolated by centrifugation (3,000 rpm, 5 min) from all blood samples collected. The plasma levels of four metal ions (calcium, magnesium, phosphate and iron) as well as the levels of creatinine and urea were determined using an Olympus AU 600 analyser. […] In Fig. 8 is shown the plasma concentration in mg/dL of calcium, iron, phosphate and magnesium ions, as well as urea and creatinine derived from CD-1 mice infected with a lethal dose (10^7 CFU) of NDM-1 producing K. pneumoniae strain LA26. […] Treatment was given every 2h for a 24h period and blood was drawn and plasma was isolated at time points 0h, 6h, 24h and 140h (7d) post treatment initiation.

[9] = Luminex assay of lymphokines, cytokines and pro-inflammatory proteins in plasma of infected mice; assay type: in vivo; details: plasma from all the sepsis therapeutic schemes
Description: As a way to further measure and evaluate the in-vivo potency and safety of β-IDACYD, we determined the levels of a series of lymphokines, cytokines, and pro-inflammatory indicator proteins. The levels of Th17 immune response related ILs 17E, 6, 1β, 4, 21, 10, 17A, 17F, IFN-g, MIP-3a, TNF-a and TNF-b were all determined in a luminex assay using plasma isolated from the mice involved in all the sepsis therapeutic schemes. […] The observation was supported by the levels of the inflammatory response proteins CRP and SAP.

[10] = test system: VIM-1 producing K. pneumoniae SEC-4; assay: Neutropenic murine thigh infection model; assay type: in vivo, CD-1 mice; details: 30 mg/kg imipenem + 10 mg/kg β-IDACYD intravenously, 2 h intervals for 24 hours
Procedure: Example 6. In-vivo murine thigh infection model: A murine thigh infection model was utilized based on the biodistribution results. In a neutropenic mouse thigh infection model was administered intravenously a therapeutic scheme of either 30 mg/kg imipenem or 30 mg/kg imipenem co-administered with 10 mg/kg β-IDACYD in 2 h intervals for 24 hours. At the end of the treatment the bacterial burden of the thigh was reduced by 0.5 log10 in the presence of 10 mg/kg β-IDACYD compared to that of the antibiotic monotherapy.
Twenty, 10 weeks old female (CD-1) mice were rendered neutropenic by administration of two doses of cyclophosphamide (150 mg/kg and 100 mg/kg per mouse on days -4 and -1, respectively). On day 0, all mice were challenged with 0.1 mL of a 10^7 CFU/mL of VIM-1 producing K. pneumoniae SEC-4 by intramuscular injection in the right thigh. From the six mice in the control group that were treated with normal saline (Group A), two mice were sacrificed 2 hours post inoculation while the other mice in groups of seven mice each were intravenously treated with 30 mg/kg imipenem (Group B) or 30 mg/kg imipenem along with 10 mg/kg β-IDACYD (Group C) at 2 hour intervals for 24 hours. At 6-hours post inoculation two mice of group 1 as well as three mice of each of groups 2 and 3 were sacrificed and their thighs were aseptically removed. […]

[11] = biological target: NDM-1 (Klebsiella pneumoniae, UniProt C7C422); assay: Spectrophotometric IC50 determination against MBL; assay type: biochemical; details: ± 0.32
[12] = test system: MBL producing clinical strains; assay: MIC potentiation over the whole collection of isolates; assay type: cell-based; details: 50 µM β-IDACYD
Procedure: as §1

[13] = biological target: VIM-1 (Pseudomonas aeruginosa, UniProt A0A0F7KYQ8); assay: Spectrophotometric IC50 determination against MBL; assay type: biochemical; details: ± 1.07

Sequence of NDM-1 (C7C422 29-270, looked up): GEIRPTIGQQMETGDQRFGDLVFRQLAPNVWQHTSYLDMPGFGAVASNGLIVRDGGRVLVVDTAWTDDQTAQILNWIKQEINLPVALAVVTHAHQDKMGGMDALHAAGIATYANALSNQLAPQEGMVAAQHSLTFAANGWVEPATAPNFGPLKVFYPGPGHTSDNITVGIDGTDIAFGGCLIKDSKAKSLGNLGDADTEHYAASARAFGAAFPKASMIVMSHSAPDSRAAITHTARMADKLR

C[C@@H](O)[C@H]1C(=O)N2C(C(=O)O)=C(S[C@@H]3CN[C@H](C(=O)N(C)C)C3)[C@H](C)[C@H]12 [Meropenem, reference compound]
MIC ([1]; read-out: Meropenem MIC, isolate TZAN-116 (VIM)): 1 µg/mL
MIC ([1]; read-out: Meropenem MIC, isolate TZAN-541 (VIM)): 2 µg/mL
MIC ([2]; read-out: Meropenem MIC, Table 5, Pr m ESDY 15315 (VIM-1, CMY)): 16 µg/mL
MIC ([2]; read-out: Meropenem MIC, isolate ALX-13 (VIM, VEB)): 32 µg/mL
MIC ([2]; read-out: Meropenem MIC, isolate ESDY-17 (VIM, CMY)): 0.25 µg/mL
MIC ([2]; read-out: Meropenem MIC, isolate ESDY-15184 (VIM, CMY)): 2 µg/mL
MIC ([2]; read-out: Meropenem MIC, isolate ESDY-15315 (VIM, CMY)): 4 µg/mL
MIC ([3]; Serratia marcescens, read-out: Meropenem MIC, alone): 256 µg/mL
MIC ([4]; read-out: Meropenem MIC, isolate TZAN-40 (VIM, OXA-58)): 4 µg/mL
MIC ([4]; read-out: Meropenem MIC, isolate TZAN-42 (VIM, OXA-58)): 32 µg/mL
MIC ([5]; read-out: Meropenem MIC, isolate ALX- 21 (VIM, VEB)): 2 µg/mL
MIC ([5]; read-out: Meropenem MIC, isolate ALX-27 (VIM)): 2 µg/mL
MIC ([5]; read-out: Meropenem MIC, isolate ESDY-4559 (VIM)): 4 µg/mL
MIC ([5]; read-out: Meropenem MIC, isolate ESDY-4563 (VIM, VEB)): 2 µg/mL
MIC ([6]; read-out: Meropenem MIC, isolate AK-5227 (VIM, CMY)): 2 µg/mL
MIC ([6]; read-out: Meropenem MIC, isolate AK-5240 (VIM, CMY)): 1 µg/mL

CO[C@@H]1[C@@H](OC)[C@H]2O[C@H]3[C@H](OC)[C@@H](OC)[C@@H](O[C@H]4[C@H](OC)[C@@H](OC)[C@@H](O[C@H]5[C@H](OC)[C@@H](OC)[C@@H](O[C@H]6[C@H](OC)[C@@H](OC)[C@@H](O[C@H]7[C@H](OC)[C@@H](OC)[C@@H](O[C@H]8[C@H](OC)[C@@H](OC)[C@@H](O[C@@H]1[C@@H](CN(CC(=O)O)CC(=O)O)O2)O[C@@H]8CN(CC(=O)O)CC(=O)O)O[C@@H]7CN(CC(=O)O)CC(=O)O)O[C@@H]6CN(CC(=O)O)CC(=O)O)O[C@@H]5CN(CC(=O)O)CC(=O)O)O[C@@H]4CN(CC(=O)O)CC(=O)O)O[C@@H]3CN(CC(=O)O)CC(=O)O [β-IDACYD]
cell morphology under a microscope [7]: did not present any morphological differences characteristic of cytotoxicity
plasma levels of calcium, magnesium, phosphate, iron, creatinine and urea [8]: well within the control group range at all times
immune response (Th17 related ILs, IFN-g, MIP-3a, TNF-a, TNF-b; CRP, SAP) [9]: at no times induced an immune response
reduction of bacterial burden of the thigh compared to antibiotic monotherapy [10]: 0.5 log10
IC50 [11]: 1.63 µM
Ceftazidime/ 50µM β-IDACYD MIC ([1]; isolate TZAN-116 (VIM)): <0.25 µg/mL
Imipenem /50µM β-IDACYD MIC ([1]; isolate TZAN-116 (VIM)): <0.125 µg/mL
Meropenem /50µM β-IDACYD MIC ([1]; isolate TZAN-116 (VIM)): <0.25 µg/mL
Imipenem /50µM β-IDACYD MIC ([1]; isolate TZAN-541 (VIM)): <0.125 µg/mL
Meropenem /50µM β-IDACYD MIC ([1]; isolate TZAN-541 (VIM)): <0.25 µg/mL
Imipenem /50µM β-IDACYD MIC ([2]; isolate ALX-13 (VIM, VEB)): 1 µg/mL
Meropenem /50µM β-IDACYD MIC ([2]; isolate ALX-13 (VIM, VEB)): 0.5 µg/mL
Imipenem /50µM β-IDACYD MIC ([2]; isolate ESDY-17 (VIM, CMY)): <0.125 µg/mL
Meropenem /50µM β-IDACYD MIC ([2]; isolate ESDY-17 (VIM, CMY)): <0.25 µg/mL
Ceftazidime/ 50µM β-IDACYD MIC ([2]; isolate ESDY-15184 (VIM, CMY)): <0.25 µg/mL
Imipenem /50µM β-IDACYD MIC ([2]; isolate ESDY-15184 (VIM, CMY)): 0.125 µg/mL
Meropenem /50µM β-IDACYD MIC ([2]; isolate ESDY-15184 (VIM, CMY)): <0.25 µg/mL
Imipenem /50µM β-IDACYD MIC ([2]; isolate ESDY-15315 (VIM, CMY)): <0.125 µg/mL
Meropenem /50µM β-IDACYD MIC ([2]; isolate ESDY-15315 (VIM, CMY)): <0.25 µg/mL
Ceftazidime/ 50µM β-IDACYD MIC [3]: <0.25 µg/mL
Imipenem /50µM β-IDACYD MIC [3]: <0.125 µg/mL
Meropenem /50µM β-IDACYD MIC [3]: <0.25 µg/mL
Imipenem /50µM β-IDACYD MIC ([4]; isolate TZAN-40 (VIM, OXA-58)): 0.25 µg/mL
Meropenem /50µM β-IDACYD MIC ([4]; isolate TZAN-40 (VIM, OXA-58)): 2 µg/mL
Imipenem /50µM β-IDACYD MIC ([4]; isolate TZAN-42 (VIM, OXA-58)): 2 µg/mL
Meropenem /50µM β-IDACYD MIC ([4]; isolate TZAN-42 (VIM, OXA-58)): 8 µg/mL
Ceftazidime/ 50µM β-IDACYD MIC ([5]; isolate ALX- 21 (VIM, VEB)): 16 µg/mL
Imipenem /50µM β-IDACYD MIC ([5]; isolate ALX- 21 (VIM, VEB)): 0.25 µg/mL
Meropenem /50µM β-IDACYD MIC ([5]; isolate ALX- 21 (VIM, VEB)): <0.25 µg/mL
Imipenem /50µM β-IDACYD MIC ([5]; isolate ALX-27 (VIM)): <0.125 µg/mL
Meropenem /50µM β-IDACYD MIC ([5]; isolate ALX-27 (VIM)): <0.25 µg/mL
Ceftazidime/ 50µM β-IDACYD MIC ([5]; isolate ESDY-4559 (VIM)): <0.25 µg/mL
Imipenem /50µM β-IDACYD MIC ([5]; isolate ESDY-4559 (VIM)): <0.125 µg/mL
Meropenem /50µM β-IDACYD MIC ([5]; isolate ESDY-4559 (VIM)): <0.25 µg/mL
Imipenem /50µM β-IDACYD MIC ([5]; isolate ESDY-4563 (VIM, VEB)): <0.125 µg/mL
Meropenem /50µM β-IDACYD MIC ([5]; isolate ESDY-4563 (VIM, VEB)): <0.25 µg/mL
Imipenem /50µM β-IDACYD MIC ([6]; isolate AK-5227 (VIM, CMY)): 1 µg/mL
Meropenem /50µM β-IDACYD MIC ([6]; isolate AK-5227 (VIM, CMY)): <0.25 µg/mL
Imipenem /50µM β-IDACYD MIC ([6]; isolate AK-5240 (VIM, CMY)): <0.125 µg/mL
Meropenem /50µM β-IDACYD MIC ([6]; isolate AK-5240 (VIM, CMY)): <0.25 µg/mL
reduction of meropenem's and imipenem's minimum inhibitory concentration (MIC) [12]: up to 256 fold
IC50 [13]: 15 µM
